Laboratory results published in US11739074B2, “Ras inhibitors” (Revolution Medicines, Inc., priority 2019, dated 2023).
pEC50, pIC50: −log10 of the molar value. Where two headings read alike, the source gives them in different places.

How the values were obtained:
[1] = ester bond, EDCI/HOBt/DIPEA, 16.0 h
[2] = ester bond, 18-membered ring, EDCI/HOBt/DIEA, 25.0 °C
SW1573 = details: cited from earlier work
AsPC-1 (K-Ras G12D) [3] = experiment: Potency assay: pERK in AsPC-1 cells; format: cell-based; details: Homo sapiens, ASPC1; AsPC-1 cells, K-Ras G12D; read-out: pERK EC50 (AsPC-1 KRAS G12D)
NCI-H358 (K-Ras G12C) = experiment: CellTiter-Glo cell viability assay, H358; format: cell-based; details: Homo sapiens, NCI-H358, 120 h, NCI-H358, K-Ras G12C, 5-day treatment; read-out: H358 Cell Viability IC50
In short: (§1)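 Compounds dispensed directly onto seeded AsPC-1 (K-Ras G12D) or NCI-H358 (K-Ras G12C) cells; CellTiter-Glo luminescence read on day 5 after ~30 min equilibration to room temperature. Signal normalized to DMSO average (%) and fit by four-parameter logistic.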

AsPC-1 (K-Ras G12D) [4] = experiment: CellTiter-Glo cell viability assay, AsPC-1; format: cell-based; details: Homo sapiens, ASPC1, 120 h, AsPC-1, K-Ras G12D, 5-day treatment; read-out: AsPC-1 Cell Viability IC50
In short: as §1

KRAS G13D = KRAS G13D (Homo sapiens, UniProt P01116+P62937, G13D); experiment: Ras-Raf disruption/FRET/MOA assay, KRAS G13D; format: biochemical; details: disruption of BRAF RBD binding, with Cyclophilin A; read-out: KRAS G13D FRET IC50
In short: (§2)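 His6-KRAS-GMPPNP (12.5 nM) was combined with tagless Cyclophilin A (25 μM) and GST-BRAF^RBD (50 nM) in pH 7.3 HEPES buffer with NaCl, MgCl2, Tween20 and BSA. Compound was tested as a 10-point 3-fold series from 30 μM final, 3 h at 25° C. Disruption was read as a drop in TR-FRET ratio versus DMSO.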

KRAS G12S = KRAS G12S (Homo sapiens, UniProt P01116+P62937, G12S); experiment: Ras-Raf disruption/FRET/MOA assay, KRAS G12S; format: biochemical; details: disruption of BRAF RBD binding, with Cyclophilin A; read-out: KRAS G12S FRET IC50
In short: as §2

KRAS G13C = KRAS G13C (Homo sapiens, UniProt P01116+P62937, G13C); experiment: Ras-Raf disruption/FRET/MOA assay, KRAS G13C; format: biochemical; details: disruption of BRAF RBD binding, with Cyclophilin A; read-out: KRAS G13C FRET IC50
In short: as §2

KRAS G12V = KRAS G12V (Homo sapiens, UniProt P01116+P62937, G12V); experiment: Ras-Raf disruption/FRET/MOA assay, KRAS G12V; format: biochemical; details: disruption of BRAF RBD binding, with Cyclophilin A; read-out: KRAS G12V FRET IC50
In short: as §2

KRAS G12D = KRAS G12D (Homo sapiens, UniProt P01116+P62937, G12D); experiment: Ras-Raf disruption/FRET/MOA assay, KRAS G12D; format: biochemical; details: disruption of BRAF RBD binding, with Cyclophilin A; read-out: KRAS G12D FRET IC50
In short: as §2

KRAS WT = KRAS WT (Homo sapiens, UniProt P01116+P62937); experiment: Ras-Raf disruption/FRET/MOA assay, KRAS WT; format: biochemical; details: disruption of BRAF RBD binding, with Cyclophilin A; read-out: KRAS WT FRET IC50
In short: as §2

KRAS G12C = KRAS G12C (Homo sapiens, UniProt P01116+P62937, G12C); experiment: Ras-Raf disruption/FRET/MOA assay, KRAS G12C; format: biochemical; details: disruption of BRAF RBD binding, with Cyclophilin A; read-out: KRAS G12C FRET IC50
In short: as §2

KRAS Q61H = KRAS Q61H (Homo sapiens, UniProt P01116+P62937, Q61H); experiment: Ras-Raf disruption/FRET/MOA assay, KRAS Q61H; format: biochemical; details: KRAS Q61H; read-out: KRAS Q61H FRET data IC50
In short: as §2

NRAS G12C = target: T1, NRAS G12C (Homo sapiens, UniProt P01111+P62937, G12C); experiment: Ras-Raf disruption/FRET/MOA assay, NRAS G12C; format: biochemical; details: NRAS G12C; read-out: NRAS G12C FRET data IC50
T1 construct: His6
In short: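 Disruption of Ras:RAF binding was read as a drop in TR-FRET ratio versus DMSO controls. The buffer was 25 mM HEPES pH 7.3, 0.002% Tween20, 0.1% BSA, 100 mM NaCl and 5 mM MgCl2. Compounds were tested as a 10-point 3-fold dilution series from 30 μM. Detection used 10 nM anti-His Eu-W1024 and 50 nM anti-GST allophycocyanin.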

NRAS WT = target: T2, NRAS WT (Homo sapiens, UniProt P01111+P62937); experiment: Ras-Raf disruption/FRET/MOA assay, NRAS WT; format: biochemical; details: NRAS WT; read-out: NRAS WT FRET data IC50
T2 construct: His6

NRAS Q61K = target: T3, NRAS Q61K (Homo sapiens, UniProt P01111+P62937, Q61K); experiment: Ras-Raf disruption/FRET/MOA assay, NRAS Q61K; format: biochemical; details: NRAS Q61K; read-out: NRAS Q61K FRET data IC50
T3 construct: His6

NRAS Q61R = target: T4, NRAS Q61R (Homo sapiens, UniProt P01111+P62937, Q61R); experiment: Ras-Raf disruption/FRET/MOA assay, NRAS Q61R; format: biochemical; details: NRAS Q61R; read-out: NRAS Q61R FRET data IC50
T4 construct: His6
T4 sequence (P01111 whole entry Q61R): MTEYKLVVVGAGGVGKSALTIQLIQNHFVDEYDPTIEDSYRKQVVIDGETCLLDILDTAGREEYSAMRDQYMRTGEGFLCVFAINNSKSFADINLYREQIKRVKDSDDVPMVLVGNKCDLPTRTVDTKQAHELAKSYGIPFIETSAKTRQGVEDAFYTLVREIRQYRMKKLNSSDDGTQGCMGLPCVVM
T4 sequence (P62937 whole entry): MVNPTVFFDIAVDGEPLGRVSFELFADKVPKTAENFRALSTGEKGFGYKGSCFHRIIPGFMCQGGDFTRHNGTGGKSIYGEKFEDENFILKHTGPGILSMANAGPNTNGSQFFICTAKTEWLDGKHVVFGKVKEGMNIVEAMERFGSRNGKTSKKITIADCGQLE

Sequence of KRAS G12V (P01116 1-169 isoform P01116-2 G12V limits assumed): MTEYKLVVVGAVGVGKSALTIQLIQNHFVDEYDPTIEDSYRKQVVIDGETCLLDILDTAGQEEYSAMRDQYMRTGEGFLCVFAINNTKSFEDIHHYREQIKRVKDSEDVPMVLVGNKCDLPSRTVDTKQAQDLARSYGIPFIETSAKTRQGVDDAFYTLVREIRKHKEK
Sequence of KRAS G12V (P62937 whole entry): as the sequence (P62937 whole entry) above
Sequence of KRAS G13C (P01116 1-169 isoform P01116-2 G13C limits assumed): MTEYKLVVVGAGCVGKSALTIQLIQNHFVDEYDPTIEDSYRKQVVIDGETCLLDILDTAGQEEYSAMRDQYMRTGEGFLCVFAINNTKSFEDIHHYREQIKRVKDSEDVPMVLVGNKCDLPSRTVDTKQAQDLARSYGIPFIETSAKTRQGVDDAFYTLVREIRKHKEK
Sequence of KRAS G13C (P62937 whole entry): as the sequence (P62937 whole entry) above
Sequence of KRAS G12D (P01116 1-169 isoform P01116-2 G12D limits assumed): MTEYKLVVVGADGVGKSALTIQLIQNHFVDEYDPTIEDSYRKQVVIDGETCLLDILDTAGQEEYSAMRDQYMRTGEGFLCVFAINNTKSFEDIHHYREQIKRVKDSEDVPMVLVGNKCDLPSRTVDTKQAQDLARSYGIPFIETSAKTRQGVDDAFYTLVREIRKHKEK
Sequence of KRAS G12D (P62937 whole entry): as the sequence (P62937 whole entry) above
T2 sequence (P01111 whole entry): as the sequence (P01111 whole entry Q61R) above, with R61Q counted along it
T2 sequence (P62937 whole entry): as the sequence (P62937 whole entry) above
T3 sequence (P01111 whole entry Q61K): as the sequence (P01111 whole entry Q61R) above, with R61K counted along it
T3 sequence (P62937 whole entry): as the sequence (P62937 whole entry) above
Sequence of KRAS Q61H (P01116 1-169 isoform P01116-2 Q61H limits assumed): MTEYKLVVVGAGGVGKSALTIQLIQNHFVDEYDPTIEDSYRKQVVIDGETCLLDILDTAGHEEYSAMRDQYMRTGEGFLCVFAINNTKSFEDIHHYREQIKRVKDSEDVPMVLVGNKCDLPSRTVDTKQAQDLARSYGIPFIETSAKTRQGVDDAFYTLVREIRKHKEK
Sequence of KRAS Q61H (P62937 whole entry): as the sequence (P62937 whole entry) above
Sequence of KRAS G12C (P01116 1-169 isoform P01116-2 G12C limits assumed): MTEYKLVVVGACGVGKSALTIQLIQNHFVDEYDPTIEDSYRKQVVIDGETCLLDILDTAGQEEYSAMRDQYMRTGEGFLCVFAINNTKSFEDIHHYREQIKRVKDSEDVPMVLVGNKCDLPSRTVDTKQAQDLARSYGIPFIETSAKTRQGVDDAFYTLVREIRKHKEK
Sequence of KRAS G12C (P62937 whole entry): as the sequence (P62937 whole entry) above
T1 sequence (P01111 whole entry G12C): as the sequence (P01111 whole entry Q61R) above, with G12C, R61Q counted along it
T1 sequence (P62937 whole entry): as the sequence (P62937 whole entry) above
Sequence of KRAS WT (P01116 1-169 isoform P01116-2 limits assumed): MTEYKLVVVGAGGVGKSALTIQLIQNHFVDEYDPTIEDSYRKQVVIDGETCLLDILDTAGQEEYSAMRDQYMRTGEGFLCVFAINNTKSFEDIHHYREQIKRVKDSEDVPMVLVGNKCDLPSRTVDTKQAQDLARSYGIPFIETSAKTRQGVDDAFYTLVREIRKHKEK
Sequence of KRAS WT (P62937 whole entry): as the sequence (P62937 whole entry) above
Sequence of KRAS G12S (P01116 1-169 isoform P01116-2 G12S limits assumed): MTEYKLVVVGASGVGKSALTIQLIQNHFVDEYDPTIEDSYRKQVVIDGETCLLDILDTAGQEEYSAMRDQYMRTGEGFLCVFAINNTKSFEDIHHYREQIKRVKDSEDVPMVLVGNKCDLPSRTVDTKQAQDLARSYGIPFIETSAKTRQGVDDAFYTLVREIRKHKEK
Sequence of KRAS G12S (P62937 whole entry): as the sequence (P62937 whole entry) above
Sequence of KRAS G13D (P01116 1-169 isoform P01116-2 G13D limits assumed): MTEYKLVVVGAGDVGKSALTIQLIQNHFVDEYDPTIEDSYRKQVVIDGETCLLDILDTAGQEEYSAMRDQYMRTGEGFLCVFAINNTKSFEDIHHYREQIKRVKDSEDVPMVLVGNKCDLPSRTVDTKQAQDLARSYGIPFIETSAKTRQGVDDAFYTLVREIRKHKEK
Sequence of KRAS G13D (P62937 whole entry): as the sequence (P62937 whole entry) above

CC(C)[Si](Oc1cc2cc(c1)-c1ccc3[nH]c(I)c(c3c1)CC(C)(C)COC(=O)[C@@H]1CCCN(N1)C(=O)[C@@H](NC(=O)OC(C)(C)C)C2)(C(C)C)C(C)C
ring closure, yield of all isomers ([1]; from CC(C)[Si](Oc1cc(C[C@H](NC(=O)OC(C)(C)C)C(=O)N2CCC[C@@H](C(=O)O)N2)cc(-c2ccc3[nH]c(I)c(CC(C)(C)CO)c3c2)c1)(C(C)C)C(C)C, DCM, 22.8 mM, 25.0 °C): 50%

CC1(C)COC(=O)[C@@H]2CCCN(N2)C(=O)[C@@H](NC(=O)OC(C)(C)C)Cc2cccc(c2)-c2ccc3[nH]c(I)c(c3c2)C1
ring closure, yield of all isomers ([1]; from CC(C)(CO)Cc1c(I)[nH]c2ccc(-c3cccc(C[C@H](NC(=O)OC(C)(C)C)C(=O)N4CCC[C@@H](C(=O)O)N4)c3)cc12, DCM, 12.8 mM, 0.0 °C): 79.8%

CCn1c(-c2cc(N3CCN(C(=O)OCc4ccccc4)CC3)cnc2[C@H](C)OC)c2c3cc(ccc31)-c1csc(n1)C[C@H](NC(=O)OC(C)(C)C)C(=O)N1CCC[C@H](N1)C(=O)OCC(C)(C)C2
ring closure, isolated yield ([2]; from CCn1c(-c2cc(N3CCN(C(=O)OCc4ccccc4)CC3)cnc2[C@H](C)OC)c(CC(C)(C)CO)c2cc(-c3csc(C[C@H](NC(=O)OC(C)(C)C)C(=O)N4CCC[C@@H](C(=O)O)N4)n3)ccc21, MeCN, 10.3 mM): 54.9%
ring closure, yield of all isomers ([1]; from CCn1c(-c2cc(N3CCN(C(=O)OCc4ccccc4)CC3)cnc2[C@H](C)OC)c(CC(C)(C)CO)c2cc(-c3csc(C[C@H](NC(=O)OC(C)(C)C)C(=O)N4CCC[C@@H](C(=O)O)N4)n3)ccc21, MeCN, 10.34 mM, 25.0 °C): 54.9%

CCn1c(-c2cccnc2[C@H](C)OC)c2c3cc(ccc31)-c1cc(CF)cc(c1)C[C@H](NC(=O)OC(C)(C)C)C(=O)N1CCC[C@H](N1)C(=O)OCC(C)(C)C2
ring closure, isolated yield ([2]; from CCn1c(-c2cccnc2[C@H](C)OC)c(CC(C)(C)CO)c2cc(-c3cc(CF)cc(C[C@H](NC(=O)OC(C)(C)C)C(=O)N4CCC[C@@H](C(=O)O)N4)c3)ccc21, DCM, 23.7 mM): 65%
ring closure, yield of all isomers ([1]; from CCn1c(-c2cccnc2[C@H](C)OC)c(CC(C)(C)CO)c2cc(-c3cc(CF)cc(C[C@H](NC(=O)OC(C)(C)C)C(=O)N4CCC[C@@H](C(=O)O)N4)c3)ccc21, DCM, 23.73 mM, 25.0 °C): 65%

CCn1c(-c2cccnc2[C@H](C)OC)c2c3cc(ccc31)-c1cc(cc(C(F)F)c1)C[C@H](NC(=O)OC(C)(C)C)C(=O)N1CCC[C@H](N1)C(=O)OCC(C)(C)C2
ring closure, isolated yield ([2]; from CCn1c(-c2cccnc2[C@H](C)OC)c(CC(C)(C)CO)c2cc(-c3cc(C[C@H](NC(=O)OC(C)(C)C)C(=O)N4CCC[C@@H](C(=O)O)N4)cc(C(F)F)c3)ccc21, DCM, 21.0 mM): 71.6%
ring closure, yield of all isomers ([1]; from CCn1c(-c2cccnc2[C@H](C)OC)c(CC(C)(C)CO)c2cc(-c3cc(C[C@H](NC(=O)OC(C)(C)C)C(=O)N4CCC[C@@H](C(=O)O)N4)cc(C(F)F)c3)ccc21, DCM, 21.05 mM, 25.0 °C): 71.6%

CCn1c(-c2cccnc2[C@H](C)OC)c2c3cc(ccc31)-c1cc(cc(O[Si](C(C)C)(C(C)C)C(C)C)c1)C[C@H](NC(=O)OC(C)(C)C)C(=O)N1CCC[C@H](N1)C(=O)OCC(C)(C)C2
ring closure, isolated yield ([2]; from CCn1c(-c2cccnc2[C@H](C)OC)c(CC(C)(C)CO)c2cc(-c3cc(C[C@H](NC(=O)OC(C)(C)C)C(=O)N4CCC[C@@H](C(=O)O)N4)cc(O[Si](C(C)C)(C(C)C)C(C)C)c3)ccc21, DCM, 15.3 mM): 42%
ring closure, yield of all isomers ([1]; from CCn1c(-c2cccnc2[C@H](C)OC)c(CC(C)(C)CO)c2cc(-c3cc(C[C@H](NC(=O)OC(C)(C)C)C(=O)N4CCC[C@@H](C(=O)O)N4)cc(O[Si](C(C)C)(C(C)C)C(C)C)c3)ccc21, DCM, 15.3 mM, 25.0 °C): 42%

CCn1c(-c2cccnc2[C@H](C)OC)c2c3cc(ccc31)-c1csc(n1)C[C@H](NC(=O)OC(C)(C)C)C(=O)N1CCC[C@H](N1)C(=O)OCC(C)(C)C2
ring closure, yield of all isomers ([1]; from CCn1c(-c2cccnc2[C@H](C)OC)c(CC(C)(C)CO)c2cc(-c3csc(C[C@H](NC(=O)OC(C)(C)C)C(=O)N4CCC[C@@H](C(=O)O)N4)n3)ccc21, DCM, 12.65 mM, 25.0 °C): 81.1%

C=CC(=O)N1CCN(c2nc(=O)n(-c3c(C)ccnc3C(C)C)c3nc(-c4c(O)cccc4F)c(F)cc23)[C@@H](C)C1 [AMG510]
sensitivity of cell line SW1573 to inhibitor (SW1573): insensitive

CCn1c(-c2cccnc2[C@H](C)OC)c2c3cc(ccc31)-c1cc(CF)cc(c1)C[C@H](NC(=O)[C@H](C1CCCC1)N1CC[C@]3(CCN(C(=O)[C@@H]4N[C@@H]4C4CC4)C3)C1=O)C(=O)N1CCC[C@H](N1)C(=O)OCC(C)(C)C2 [Compound 321]
pEC50 (AsPC-1 (K-Ras G12D) [3]): > 5.30
pIC50 (NCI-H358 (K-Ras G12C)): 6.00 to 7.00
pIC50 (AsPC-1 (K-Ras G12D) [4]): 7.00 to 8.00
pIC50 (KRAS G13D): 5.00 to 6.00
pIC50 (KRAS G12S): 6.00 to 7.00
pIC50 (KRAS G13C): 6.00 to 7.00
pIC50 (KRAS G12V): 6.00 to 7.00
pIC50 (KRAS G12D): 6.00 to 7.00
pIC50 (KRAS WT): 6.00 to 7.00
pIC50 (KRAS G12C): 6.00 to 7.00
pIC50 (KRAS Q61H): 6.00 to 7.00
pIC50 (NRAS G12C): 6.00 to 7.00
pIC50 (NRAS WT): 6.00 to 7.00
pIC50 (NRAS Q61K): 5.00 to 6.00
pIC50 (NRAS Q61R): 5.00 to 6.00

CCn1c(-c2cc(N3CCN(C)CC3)cnc2[C@H](C)OC)c2c3cc(ccc31)-c1csc(n1)C[C@H](NC(=O)[C@H](C1CCCC1)N1CC[C@]3(CCN(C(=O)[C@@H]4N[C@@H]4C4CC4)C3)C1=O)C(=O)N1CCC[C@H](N1)C(=O)OCC(C)(C)C2 [Compound 324]
pEC50 (AsPC-1 (K-Ras G12D) [3]): > 5.30
pIC50 (NCI-H358 (K-Ras G12C)): > 8.00
pIC50 (AsPC-1 (K-Ras G12D) [4]): 7.00 to 8.00
pIC50 (KRAS G13D): 5.00 to 6.00
pIC50 (KRAS G12S): 6.00 to 7.00
pIC50 (KRAS G13C): 6.00 to 7.00
pIC50 (KRAS G12V): 6.00 to 7.00
pIC50 (KRAS G12D): 6.00 to 7.00
pIC50 (KRAS WT): 6.00 to 7.00
pIC50 (KRAS G12C): 6.00 to 7.00
pIC50 (KRAS Q61H): 6.00 to 7.00
pIC50 (NRAS G12C): 6.00 to 7.00
pIC50 (NRAS WT): 6.00 to 7.00
pIC50 (NRAS Q61K): 6.00 to 7.00
pIC50 (NRAS Q61R): 6.00 to 7.00
